Literature values in patent publication US8343544B2, “Oral sustained-release tablet” (Kyorin Pharmaceutical Co., Ltd., priority 2003, dated 2013).

Conditions: conventional preparation

absorption after an oral administration: rapidly absorbed
half-life (oral): relatively short
Compound: Cc1nccn1CCC(C(N)=O)(c1ccccc1)c1ccccc1 [KRP-197, 4-(2-methyl-1-imidazolyl)-2,2-diphenylbutylamide]
